Experimental data as given in PubChem BioAssay AID248 (DTP/NCI, 2004).
Values joined by “and” are separate entries in the source; they are usually repeats but may differ in a detail not shown here. Identical values can stand only once. Toxic doses and inconclusive results are not listed. No stated cut-off is given here; in the data, active means T/C of 150% or more; inactive means T/C below 125%.

System: L1210 leukemia ip in BDF1 mice, survival T/C
Test: NCI In Vivo Anticancer Drug Screen. Data for tumor model L1210 Leukemia (intraperitoneal) in B6D2F1 (BDF1) mice
Conditions: endpoint: mean survival time, higher = longer survival
Outline: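 Transplanted-tumor mice were given test agent; controls received vehicle only. Survival readings from the two groups were divided (treated over control).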

[1] = dose: 100.0 mg/kg/injection, schedule: Q04DX003 (ip), vehicle: saline with Tween-80
[2] = dose: 200.0 mg/kg/injection, schedule: Q04DX003 (ip), vehicle: saline with Tween-80
[3] = dose: 400.0 mg/kg/injection, schedule: Q04DX003 (ip), vehicle: saline with Tween-80
[4] = dose: 50.0 mg/kg/injection, schedule: Q01DX001 (ip), vehicle: saline
[5] = dose: 100.0 mg/kg/injection, schedule: Q01DX001 (ip), vehicle: saline
[6] = dose: 200.0 mg/kg/injection, schedule: Q01DX001 (ip), vehicle: saline
[7] = dose: 400.0 mg/kg/injection, schedule: Q01DX001 (ip), vehicle: saline
[8] = dose: 10.0 mg/kg/injection, schedule: Q01DX001 (ip), vehicle: saline
[9] = dose: 20.0 mg/kg/injection, schedule: Q01DX001 (ip), vehicle: saline
[10] = dose: 40.0 mg/kg/injection, schedule: Q01DX001 (ip), vehicle: saline
[11] = dose: 80.0 mg/kg/injection, schedule: Q01DX001 (ip), vehicle: saline
[12] = dose: 100.0 mg/kg/injection, schedule: Q04DX003 (ip), vehicle: saline
[13] = dose: 200.0 mg/kg/injection, schedule: Q04DX003 (ip), vehicle: saline
[14] = dose: 400.0 mg/kg/injection, schedule: Q04DX003 (ip), vehicle: saline
[15] = dose: 50.0 mg/kg/injection, schedule: Q01DX009 (ip), vehicle: Klucel (hydroxypropylcellulose) (HPC)
[16] = dose: 100.0 mg/kg/injection, schedule: Q01DX009 (ip), vehicle: Klucel (hydroxypropylcellulose) (HPC)
[17] = dose: 200.0 mg/kg/injection, schedule: Q01DX009 (ip), vehicle: Klucel (hydroxypropylcellulose) (HPC)
[18] = dose: 400.0 mg/kg/injection, schedule: Q01DX009 (ip), vehicle: Klucel (hydroxypropylcellulose) (HPC)
[19] = dose: 100.0 mg/kg/injection, schedule: Q01DX001 (ip), vehicle: carboxymethylcellulose (CMC)
[20] = dose: 200.0 mg/kg/injection, schedule: Q01DX001 (ip), vehicle: carboxymethylcellulose (CMC)
[21] = dose: 400.0 mg/kg/injection, schedule: Q01DX001 (ip), vehicle: carboxymethylcellulose (CMC)
[22] = dose: 25.0 mg/kg/injection, schedule: Q01DX009 (ip), vehicle: Klucel (hydroxypropylcellulose) (HPC)

Measured: T/C

O=C(O)C(F)(F)C(F)(F)C(F)(F)F.[Ag]
inactive: dose: 10.0 mg/kg/injection, schedule: Q01DX001 (ip), vehicle: acetone 101 % of control | dose: 20.0 mg/kg/injection, schedule: Q01DX001 (ip), vehicle: acetone 96 % of control | dose: 40.0 mg/kg/injection, schedule: Q01DX001 (ip), vehicle: acetone 109 % of control

COc1cc2c(c(OC)c1OC)CN(CC1COc3ccccc3O1)CC2 (stereo not drawn)
inactive: [1] 98 % of control | [2] 101 % of control | [3] 96 % of control

CC(=O)OC1COC(n2cnc3c(=O)[nH]c(N)nc32)C(OC(C)=O)C1OC(C)=O (stereo not drawn)
inactive: [4] 104 % of control | [5] 104 % of control | [6] 95 % of control | [7] 93 % of control

CCOC(=O)C(CCSC)(CCN(C)Cc1ccccc1)C(=O)OCC
inactive: dose: 5.0 mg/kg/injection, schedule: Q01DX001 (ip), vehicle: saline 102 % of control | [8] 96 % of control | [9] 96 % of control | [10] 94 % of control | [11] 94 % of control | [5] 100 % of control

O=C1C(N2CCCCC2)=C(N2CC2)C(=O)C(N2CCCCC2)=C1N1CC1
inactive: dose: 0.39 mg/kg/injection, schedule: Q04DX003 (ip), vehicle: saline 94 % of control and 96 % of control | dose: 0.78 mg/kg/injection, schedule: Q04DX003 (ip), vehicle: saline 100 % of control and 103 % of control | dose: 1.56 mg/kg/injection, schedule: Q04DX003 (ip), vehicle: saline 103 % of control and 107 % of control | dose: 3.12 mg/kg/injection, schedule: Q04DX003 (ip), vehicle: saline 103 % of control and 107 % of control | dose: 6.25 mg/kg/injection, schedule: Q04DX003 (ip), vehicle: saline 96 % of control and 100 % of control | [8] 86 % of control | dose: 12.5 mg/kg/injection, schedule: Q04DX003 (ip), vehicle: saline 103 % of control and 122 % of control | [9] 99 % of control | dose: 35.0 mg/kg/injection, schedule: Q04DX003 (ip), vehicle: saline 101 % of control | [10] 93 % of control | dose: 55.0 mg/kg/injection, schedule: Q04DX003 (ip), vehicle: saline 90 % of control | [11] 108 % of control | dose: 80.0 mg/kg/injection, schedule: Q04DX003 (ip), vehicle: saline 88 % of control

C1=CC2(CC=C1C1=CCC3(C=C1)SCCS3)SCCS2
inactive: dose: 50.0 mg/kg/injection, schedule: Q04DX002 (ip), vehicle: Klucel (hydroxypropylcellulose) (HPC) 108 % of control | dose: 100.0 mg/kg/injection, schedule: Q04DX002 (ip), vehicle: Klucel (hydroxypropylcellulose) (HPC) 101 % of control | dose: 200.0 mg/kg/injection, schedule: Q04DX002 (ip), vehicle: Klucel (hydroxypropylcellulose) (HPC) 104 % of control

[Cu+2].[Cu+2].[O-]CCCN=Cc1ccccc1[O-].[O-]CCCN=Cc1ccccc1[O-]
inactive: dose: 75.0 mg/kg/injection, schedule: Q01DX001 (ip), vehicle: other 97 % of control | dose: 150.0 mg/kg/injection, schedule: Q01DX001 (ip), vehicle: other 111 % of control | dose: 300.0 mg/kg/injection, schedule: Q01DX001 (ip), vehicle: other 102 % of control

NCc1ccccc1[N+](=O)[O-]
inactive: [12] 104 % of control | [13] 104 % of control | [14] 102 % of control

COC(=O)C1=COC(C)C2CN3CCc4c([nH]c5cc(OC)ccc45)C3CC12 (stereo not drawn)
inactive: dose: 22.0 mg/kg/injection, schedule: Q01DX Z (ip), vehicle: other 100 % of control | dose: 44.0 mg/kg/injection, schedule: Q01DX Z (ip), vehicle: other 86 % of control

CC(C)N1CSC(=S)N(Cc2ccccc2)C1
inactive: [15] 108 % of control | [16] 92 % of control | dose: 100.0 mg/kg/injection, schedule: Q04DX003 (ip), vehicle: Klucel (hydroxypropylcellulose) (HPC) 98 % of control | [17] 91 % of control | dose: 200.0 mg/kg/injection, schedule: Q04DX003 (ip), vehicle: Klucel (hydroxypropylcellulose) (HPC) 95 % of control | [18] 94 % of control | dose: 400.0 mg/kg/injection, schedule: Q04DX003 (ip), vehicle: Klucel (hydroxypropylcellulose) (HPC) 90 % of control

COc1c(Br)cc(N=Cc2ccc(N(CCCl)CCCl)cc2C)cc1Br
inactive: [19] 98 % of control | [20] 107 % of control | [21] 110 % of control

O=C1c2ccccc2-c2cc(F)cc(F)c21
inactive: dose: 50.0 mg/kg/injection, schedule: Q01DX001 (ip), vehicle: carboxymethylcellulose (CMC) 104 % of control | [19] 102 % of control | [20] 102 % of control | [21] 102 % of control

OC(CN1CCCCC1)c1cccs1 (stereo not drawn)
inactive: dose: 6.25 mg/kg/injection, schedule: Q04DX003 (ip), vehicle: saline with Tween-80 94 % of control | dose: 12.5 mg/kg/injection, schedule: Q04DX003 (ip), vehicle: saline with Tween-80 97 % of control | dose: 25.0 mg/kg/injection, schedule: Q04DX003 (ip), vehicle: saline with Tween-80 94 % of control

O=C(CCCC(=O)N/N=C/c1cccc(O)c1)N/N=C\c1cccc(O)c1
inactive: [4] 98 % of control | [5] 104 % of control | [6] 98 % of control | [7] 92 % of control

c1ccc(CCSc2ccccc2)cc1
inactive: dose: 100.0 mg/kg/injection, schedule: Q01DX009 (ip), vehicle: saline with Tween-80 102 % of control | [1] 103 % of control | dose: 200.0 mg/kg/injection, schedule: Q01DX009 (ip), vehicle: saline with Tween-80 98 % of control | [2] 97 % of control | dose: 400.0 mg/kg/injection, schedule: Q01DX009 (ip), vehicle: saline with Tween-80 95 % of control | [3] 94 % of control

Nc1nc(=S)c2n[nH]nc2[nH]1
inactive: dose: 100.0 mg/kg/injection, schedule: Q01DX001 (ip), vehicle: saline with Tween-80 94 % of control

COC1OC(CCl)C(Cl)CC1OC(C)=O (stereo not drawn)
inactive: [12] 95 % of control | [13] 90 % of control | [14] 98 % of control

N#CC12CC=CCC1CCC2=N (stereo not drawn)
inactive: dose: 12.5 mg/kg/injection, schedule: Q01DX009 (ip), vehicle: Klucel (hydroxypropylcellulose) (HPC) 96 % of control | [22] 89 % of control

NC(=O)c1ccccc1OC(=O)Nc1cc([N+](=O)[O-])ccc1F
inactive: [22] 104 % of control | [15] 107 % of control | [16] 94 % of control and 92 % of control

COc1ccc(OC)c(NC(=O)NC(C)(C)C)c1
inactive: [16] 101 % of control | [17] 103 % of control | [18] 88 % of control

CCCCOCCOc1ccc(C(=O)OC)cc1
inactive: dose: 100.0 mg/kg/injection, schedule: Q04DX003 (ip), vehicle: saline sonified 101 % of control | dose: 200.0 mg/kg/injection, schedule: Q04DX003 (ip), vehicle: saline sonified 111 % of control | dose: 400.0 mg/kg/injection, schedule: Q04DX003 (ip), vehicle: saline sonified 101 % of control

CC1(C)OC2C(CO)OC(n3cnc4c(=O)[nH]cnc43)C2O1 (stereo not drawn)
inactive: dose: 75.0 mg/kg/injection, schedule: Q01DX001 (ip), vehicle: saline 102 % of control | dose: 150.0 mg/kg/injection, schedule: Q01DX001 (ip), vehicle: saline 92 % of control

CC(=O)NC(CO)C(O)C(O)C(O)CO (stereo not drawn)
inactive: dose: 100.0 mg/kg/injection, schedule: Q04DX002 (ip), vehicle: saline 101 % of control and 89 % of control | dose: 200.0 mg/kg/injection, schedule: Q04DX002 (ip), vehicle: saline 93 % of control and 104 % of control | dose: 400.0 mg/kg/injection, schedule: Q04DX002 (ip), vehicle: saline 93 % of control | dose: 800.0 mg/kg/injection, schedule: Q04DX002 (ip), vehicle: saline 93 % of control
